For one assay, the system named is CIA model rats. Kind of assay: Pharmacodynamic evaluation on rheumatoid arthritis model (type II collagen-induced arthritis, CIA). The assay is classed as in vivo, Wistar rat. The note with it: CIA Wistar rats; for degree of joint swelling: FIG. 2B; for gain of body weight: intraperitoneal injection, FIG. 2A. Here is the method: The animal model used in this experiment was a type II collagen-induced arthritis animal model (CIA) established by using Wistar rat. On the 0 and 7th day of the experiment, rats were subcutaneously injected with a mixed solution of Bovine II Collagen (CII) and Incomplete Freund's Adjuvant (IFA) to establish a rat model of arthritis.
In the pharmacodynamic test of Compound 1, Compound 1 and the positive drug, methotrexate were dissolved in a solvent system consisting of dimethyl sulfoxide (DMSO), polyethylene glycol 400 (PEG 400) and physiological saline at a volume ratio of 1:10:9.
During the administration to the rats (day 0 to 27 of the experiment), the body weight of a rat was weighed every three days, and the growth was observed. After the joints of the rat began to swell, the degree of joint swelling was scored every two days.
Because the incidence of inflammation in fore paw is low and the hind paws are more prone to swelling and the degree of swelling is more serious, the sum of the scores of two hind paws is used to evaluate the incidence of arthritis in rats. The maximum sum of score is 8 points.
In this experiment, Wistar rats were used to establish a CIA animal model. Joints were taken on the 28th day for subsequent fixation, paraffin embedding, section, staining and histopathological observation. The experiment results are shown as follows: During the experiment, the weight of rats in the control group continued to increase.

A further assay addresses hsDHODH (Homo sapiens (Human), UniProt Q02127). Kind of assay: Activity test at enzyme level: DHODH inhibition, DCIP absorbance at 600 nm. The assay is classed as biochemical. Here is the method: Culture and Purification of hsDHODH Protein
The correctly sequenced recombinant plasmid pET-19b-DHODH was transformed into competent E. coli BL21 (DE3), and cultured on LB plate containing ampicillin. Colonies were randomly selected, inoculated into LB medium containing […], and incubate overnight at 37° C., 230 rpm. The cells were inoculated at a ratio of 1:200 in 500 mL of LB medium containing […] and expanded at 37° C., 230 rpm. When the OD value of the cells reached 0.8-1, IPTG was added into the medium to a final concentration of IPDG of 0.5 mM, and expression was induced overnight at 25° C. The induced cells were collected by centrifugation at […], 4° C., washed with deionized water, and centrifuged again to collect the bacterial pellet, which was stored at −80° C.
Purification of protein: cells were re-suspended in lysis liquid containing 50 mM HEPES (pH 8.0), 0.15 M NaCl, 10 mM imidazole, 10% glycerol, 0.1% Triton X-100, and a small amount of soy protease inhibitor added. After re-suspended and mixed homogeneously, cells were ultrasonically disrupted. The disruption solution was centrifuged for 30 min, and the supernatant and precipitate were taken for protein electrophoresis to determine the form of protein. The supernatant was loaded onto a Ni-NTA column, and the pass-through liquid was collected, and then the resin was washed for 3-4 times with a lysis liquid containing 20 mM imidazole, and finally eluted with a lysis liquid containing 300 mM imidazole. After elution, protein solution was collected. 10 μL of the above protein sample was taken for SDS-PAGE electrophoresis to determine the content of target protein. Finally, the eluted protein solution is dialyzed in the dialysis liquid to remove imidazole, thereby obtaining a pure protein.
Method for Testing Activities of Compounds at Enzyme Level
Principles of activity test at enzyme level: firstly, dihydroorotate (DHO) is oxidatively dehydrogenated by DHODH to form orotic acid (Orotate, OA), accompanied by reduction of Flavin mononucleotide (FMN) into reduced flavin mononucleotide (FMNH2) by accepting 2H+ and 2e−, then coenzyme Q (CoQ) as hydrogen acceptor accepting electron and proton from FMNH2 is reduced into reduced coenzyme Q (CoQH2), reduced coenzyme Q transfers electrons to a chromogenic substrate, […] (DCIP), and finally DCIP was reduced. […] The degree to which the substrate DHO is oxidized can be judged based on the degree of decrease in absorbance. The degree of oxidation of the substrate DHO per unit time is the initial rate of the enzymatic reaction. Upon addition of a inhibitor, the initial rate of the enzymatic reaction is reduced.
Substrate DHO was added to start the reaction with a DHO final concentration of 500 μM. The absorbance was read at 600 nm using a BioTek microplate reader and read every 30 s for 6 min. […] For calculating IC50 of a compound, Origin 8.0 was used to test the inhibition rate at least 8 concentrations.

The mark [1] stands for this setting: purified DHODH 10 nM, DHO 500 μM, CoQ 100 μM, DCIP 120 μM, read-out: IC50 (μM) hsDHODH.
Where [2] appears, read: pharmaceutically acceptable esters (prodrugs of A and B series), hsDHODH enzyme test, read-out: IC50.

Molecules are shown by their SMILES. Like-named read-outs stand apart in the source and are kept apart here.

Sequence of hsDHODH (Q02127 whole entry): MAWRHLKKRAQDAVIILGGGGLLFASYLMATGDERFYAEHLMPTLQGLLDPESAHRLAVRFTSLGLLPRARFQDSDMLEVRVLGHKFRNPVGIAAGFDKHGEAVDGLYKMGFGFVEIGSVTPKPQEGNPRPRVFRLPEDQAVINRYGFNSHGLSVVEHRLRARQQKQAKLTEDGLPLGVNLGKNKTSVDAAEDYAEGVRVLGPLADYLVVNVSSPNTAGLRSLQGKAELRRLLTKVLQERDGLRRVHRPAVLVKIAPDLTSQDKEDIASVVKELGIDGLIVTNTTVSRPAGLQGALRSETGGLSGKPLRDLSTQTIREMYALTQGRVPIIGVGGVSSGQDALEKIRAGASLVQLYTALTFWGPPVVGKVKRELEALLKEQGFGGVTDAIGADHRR

With `CN(Cc1cnc2nc(N)nc(N)c2n1)c1ccc(C(=O)N[C@@H](CCC(=O)O)C(=O)O)cc1` [Methotrexate, reference compound], in the assay with CIA model rats (0.3 mg/kg intraperitoneal, positive drug), the “degree of joint swelling” value is “significantly reduce the degree of joint swelling”. Besides, in the assay with CIA model rats (compared with model group), the “gain of body weight” value is “improve the condition of the rats and the slow gain of body weight”.
Take `CN(/N=C/c1ccccc1C(=O)O)c1nc(-c2ccccc2Cl)cs1` [Compound 1, (E)-4-(2-chlorophenyl)-2-[1-methyl-2-(2-carboxybenzylidene)hydrazino]thiazole]: on hsDHODH (setting [1]), the 50% inhibitory concentration (IC50) was 0.0097 ± 0.0001 µM. In addition, the “degree of joint swelling” value in the assay with CIA model rats (5 mg/kg intraperitoneal, compared with model group) was “significantly reduced”; with CIA model rats (30 mg/kg intraperitoneal, compared with model group), “more significantly reduced”. Besides, the “gain of body weight” value in the assay with CIA model rats (compared with model group) is “improve the condition of the rats and the slow gain of body weight”. The “histopathological features of joint tissue (HE staining)” value in the assay on CIA model rats (joints taken on day 28, FIG. 3) is recorded as “significantly alleviated”. Besides, the “synovial hyperplasia and inflammatory cell infiltration” value in the assay with CIA model rats (tissue sections, compared with model group) is “greatly improved”.
Regarding `Cc1sc(N/N=C/c2ccccc2C(=O)O)nc1-c1ccccc1Cl` [Compound 15, (E)-5-methyl-4-(2-chlorophenyl)-2-(2-carboxylbenzylidenehydrazino)thiazole], the half-maximal inhibitory concentration (IC50) on hsDHODH (setting [1]) is 0.0662 ± 0.0002 µM.
Turning to `CCC(C)OC(=O)c1ccccc1/C=N/N(C)c1nc(-c2ccccc2Cl)cs1` (centres unmarked) [Compound B5, (E)-4-(2-chlorophenyl)-2-[1-methyl-2-(2-(2-butoxy)formylbenzylidene)hydrazino]thiazole], the IC50 on hsDHODH (setting [2]) was over 50 µM.
For the compound `CN(/N=C/c1cc(N)c(F)cc1C(=O)O)c1nc(-c2ccccc2Cl)cs1` [Compound 25], the 50% inhibitory concentration (IC50) on hsDHODH (setting [1]) was found to be 0.0316 ± 0.0001 µM.
In the case of `CC(C)OC(=O)OCOC(=O)c1ccccc1/C=N/N(C)c1nc(-c2ccccc2Cl)cs1` [Compound B11, ((isopropoxycarbonyl)oxy)methyl (E)-2-((2-(4-(2-chlorophenyl)thiazol-2-yl)-2-methylhydrazono)methyl)benzoate], the IC50 on hsDHODH (setting [2]) was over 50 µM.
`CN(/N=C/c1ccccc1C(=O)OC1CCCCC1)c1nc(-c2ccccc2Cl)cs1` [Compound B8, (E)-4-(2-chlorophenyl)-2-[1-methyl-2-(2-cyclohexyloxyformylbenzylidene)hydrazino]thiazole]: the IC50 at hsDHODH (setting [2]) is over 50 µM.
For `CN(/N=C/c1ccc(C(F)(F)F)cc1C(=O)O)c1nc(-c2ccccc2Cl)cs1` [Compound 8, (E)-4-(2-chlorophenyl)-2-[1-methyl-2-(4-trifluoromethyl-2-carboxybenzylidene)hydrazino]thiazole], the IC50 on hsDHODH (setting [1]) is 0.0868 ± 0.0009 µM.

The record behind these values is patent US10919869B2, “Thiazole derivative and applications” (EAST CHINA UNIVERSITY OF SCIENCE AND TECHNOLOGY, priority 2016, dated 2021).
